What was measured:
[1] = test system: osteoblasts (mouse MC3T3-E1); test: ALP (Alkaline phosphatase) assay, osteoblast activity; format: cell-based; conditions: MC3T3-E1, 14 days, percentage against control
Procedure: Effect of KP4 to KP6 on proliferation and differentiation of osteoblast were confirmed using ALP (Alkaline phosphatase) assay, a method for measuring osteoblast activity.
Alkaline phosphatase (ALP), which is present in the cell membranes of osteoblasts, is known as a marker of osteoblast activity and is a regulator of inorganic phosphate transport, cell division or differentiation during calcification. Therefore, ALP activity was measured to determine the effect of the compounds of the present invention on the activity of osteoblasts. ALP activity was indirectly calculated by measuring the amount of p-nitrophenol, which is produced from hydrolysis of p-nitrophenyl phosphate (pNPP, Sigma, St. Louis, Mo., USA) in which ALP act as a catalyst, using a microplate reader at 405 nm wavelength.
Specifically, osteoblasts (mouse MC3T3-E1) were aliquoted into a 96-well plate (3×10^3 cells/100 μL/well) with α-MEM medium containing ascorbic acid (50 μg/mL) and 10 mM β-glycerophosphate, a differentiation factors of osteoblast. Then, KP4 to KP6 of the present invention, and osmundacetone were added at a final concentration of 10 μM and 50 μM, followed by changing medium every 72 hours and incubating for 14 days. After 14 days, the culture medium was removed from each well, washed three times with PBS, lysed with 0.2% Nonidet P-40/10 mmol/L MgCl2, and then treated ultrasonic wave with sosonifier cell disrupter (Model W-380, Heat Systems-Ultrasonics Inc., Farmingdale, N.Y.) for 3 minutes. The cell lysate was centrifuged at 1500 g for 10 minutes and the supernatant was collected to measure ALP activity. To account for changes in ALP activity according to cell number differences, total protein levels were measured using bicinchoninic acid (BCA) protein assay kit with bovine serum albumin as the standard protein, and enzyme activity was expressed as a percentage against the control group without the compound treatment.

[2] = test system: RAW264.7 rat macrophage cell line; test: MTT assay, normal cells RAW264.7; format: cell-based; conditions: MTT assay, 48 hours, RAW264.7
From the text: (§1) The cytotoxicity against normal cells and cancer cells was confirmed using the MTT assay for the novel compounds KP2 to KP8 prepared in Example 1.
(§2) MTT assay method is as follows:
(§3) Normal cells (RAW264.7 rat macrophage cell line (osteoblast progenitor cell) and NIH3T3 mouse fibroblast line) and cancer cells (AGS human gastric cancer cell line, A549 human lung cancer cell line, HepG2 human liver cancer cell line, HCT116 human colon cancer cell line, PC3 human prostate cancer Cell line, Caki-1 human kidney cancer cell line, T24 human bladder cancer cell line, HT1080 human fibrosarcoma cell line, B16F10 mouse melanoma cell line) were cultured in 5% CO2 in 96-well plates containing DMEM with 10% FBS (fetal bovine serum). After incubation, KP2 to KP8 and controls (osmundacetone and 4-hydroxybenzalacetone) were added to the cell medium and incubated for 48 hours. Thereafter, 100 μl of MTT (0.5 mg/mL phosphate buffered saline) was added, followed by incubation for 2 hours. 100 μl of DMSO was added to each well, followed by incubation for 10 minutes, and the absorbance was measured at 550 nm using a microplate reader (SPCTRA MAX 340PC, Molecular Devices, USA). Absorbance is calculated by the formula below as an indicator of the number of cells that survived, and reproducibility was confirmed by three experiments.
(§4) The rate of cell proliferation (%)=OD550(sample)/OD550(control)

[3] = test system: T24 human bladder cancer cell line; test: MTT assay, cancer cells T24; format: cell-based; conditions: MTT assay, 48 hours, T24
From the text: as §1, §2, §3, §4

[4] = test system: HCT116 human colon cancer cell line; test: MTT assay, cancer cells HCT116; format: cell-based; conditions: MTT assay, 48 hours, HCT116
From the text: as §1, §2, §3, §4

[5] = test system: Caki-1 human kidney cancer cell line; test: MTT assay, cancer cells Caki-1; format: cell-based; conditions: 48 hours
From the text: as §1, §2, §3, §4

[6] = test system: osteoclast differentiation from bone marrow cells (RANKL and M-CSF); test: TRAP assay, osteoclast differentiation and proliferation; format: cell-based, C57BL/6 mice; conditions: TRAP-positive multinucleated cells, mouse bone marrow cells, 6-7 days; read-out: osteoclast differentiation inhibitory activity IC50
Procedure: The specific method of the TRAP assay is as follows:
The tibia and femur were aseptically excised from 6 to 8 weeks old male C57BL/6 mice, and bone marrow cells were collected aseptically with a syringe (21G, Korea Green Cross). Bone marrow cells were suspended in 500 μl of -MEM medium (Gibco BRL Co.) containing sodium bicarbonate (2.0 g/L), streptomycin (100 mg/L) and penicillin ([…]), and aliquoted into a 48-well plate, and assay was carried out with triplicate. The progenitor cells of osteoclasts, monocytes, were isolated and treated with RANKL and M-CSF, which are differentiation promoters, to differentiate into osteoclasts within 5-7 days.
1) Sample preparation: KP2 to KP8 (0.5 μM, 1 μM, 5 μM or 10 μM), Fosamax (0.5 μM, 1 μM, 5 μM, or 10 μM) and the like were dissolved in DMSO (dimethylsulfoxide) or sterile distilled water at appropriate concentrations, respectively.
2) Sample administration: The Samples were continuously administered to the medium at 1:20 (v/v; 25 μL of sample per 500 μL of medium) from the first day of culture of bone marrow cells, and the medium was replaced at 3 days intervals.
3) Osteoclast differentiation measurement: Osteoclasts were defined as TRAP-positive multinucleated cells stained with TRAP. […] The reaction reagents were stored in the refrigerator until use.
Bone marrow cells were cultured in a medium containing differentiation factors for 6-7 days, and then the medium was removed, washed with PBS, and fixed in PBS containing 10% formalin for 2-5 minutes. After fixed for 1 minute with a 1:1 mixture of ethanol and acetone, and dried. The fixed cells were treated with TRAP staining solution for 60 minutes at 37° C. with light blocking, washed with PBS, and then stained with Hematoxylin.
Among the TRAP-positive cells in the microscope field, cells with two or more nuclei were determined as osteoclasts and the number of cells was measured.

[7] = test system: B16F10 mouse melanoma cell line; test: MTT assay, cancer cells B16F10; format: cell-based; conditions: 48 hours, H16F10
From the text: as §1, §2, §3, §4

[8] = test system: PC3 human prostate cancer Cell line; test: MTT assay, cancer cells PC3; format: cell-based; conditions: 48 hours
From the text: as §1, §2, §3, §4

[9] = test system: HT1080 human fibrosarcoma cell line; test: MTT assay, cancer cells HT1080; format: cell-based; conditions: 48 hours
From the text: as §1, §2, §3, §4

[10] = test system: HepG2 human liver cancer cell line; test: MTT assay, cancer cells HepG2; format: cell-based; conditions: MTT assay, 48 hours, HepG2
From the text: as §1, §2, §3, §4

[11] = test system: AGS human gastric cancer cell line; test: MTT assay, cancer cells AGS; format: cell-based; conditions: 48 hours
From the text: as §1, §2, §3, §4

[12] = test system: NIH3T3 mouse fibroblast line; test: MTT assay, normal cells NIH3T3; format: cell-based; conditions: MTT assay, 48 hours, NTH3T3
From the text: as §1, §2, §3, §4

[13] = test system: A549 human lung cancer cell line; test: MTT assay, cancer cells A549; format: cell-based; conditions: MTT assay, 48 hours, A549
From the text: as §1, §2, §3, §4

Question: `CC(=O)/C=C/c1ccc(O)c(O)c1` [Osmundacetone, reference compound] was tested. Which “% Activation of ALP activity” value ([1]; 10 μM) did it give?
Answer: 115 ± 9.4%

Question: What about the “% Activation of ALP activity” value ([1]; 50 μM) of the same compound?
Answer: 279 ± 61%

Question: What about the “LD50 Normal cells RAW264.7” value [2] of the same compound?
Answer: 529 ± 41 µM

Question: What about the “LD63 Cancer cell T24” value [3] of the same compound?
Answer: 2000 ± 250 µM

Question: What about the “LD63 Cancer cell HCT116” value [4] of the same compound?
Answer: 689 ± 27 µM

Question: What about the “LD63 Cancer cell Caki-1” value [5] of the same compound?
Answer: 695 ± 14 µM

Question: And the IC50 [6]?
Answer: 8 µM

Question: And the “Cytotoxicity, B16F10 cells” value [7]?
Answer: 64.9 ± 59 µM

Question: What about the “LD63 Cancer cell PC3” value [8] of the same compound?
Answer: 60.6 ± 14 µM

Question: And the “LD63 Cancer cell HT1080” value [9]?
Answer: >5000 µM

Question: And the “LD63 Cancer cell HepG2” value [10]?
Answer: >5000 µM

Question: What about the “LD63 Cancer cell AGS” value [11] of the same compound?
Answer: 56.1 ± 2.1 µM

Question: And the “LD50 Normal cells NTH3T3” value [12]?
Answer: >5000 µM

Question: What about the “LD63 Cancer cell A549” value [13] of the same compound?
Answer: >5000 µM

From patent US11629121B2, “Benzylideneacetone derivative and use thereof” (KORPHARM CO., LTD., priority 2017, dated 2023)
